Experimental data taken from paper PMC7846792, “Perception of a divergent family of phytocytokines by the Arabidopsis receptor kinase MIK2” (Nature Communications, 2021).
No end group written: not given here.

System: A. thaliana seedlings
Assay: Seedling growth inhibition (fresh weight)
Type: in vivo, Arabidopsis thaliana
Conditions: mock mean = 1
Protocol: Four-day-old seedlings growing on MS plates were transferred individually into separate wells of transparent 48-well tissue culture plates (Greiner Bio-One) containing 500 μL of liquid MS media with/without elicitor addition. The plates were then transferred back to the growth conditions for an additional 10 days before seedlings were blot-dried and weighed.

PVRSSRSPRSPSF [SCOOP2]
Seedling fresh weight (Fig3C), relative to mock (Col-0, 1 μM, replicate 1): 1.166 | Seedling fresh weight (Fig3C), relative to mock (Col-0, 1 μM, replicate 2): 0.8827 | Seedling fresh weight (Fig3C), relative to mock (Col-0, 1 μM, replicate 3): 1.02 | Seedling fresh weight (Fig3C), relative to mock (Col-0, 1 μM, replicate 4): 1.184 | Seedling fresh weight (Fig3C), relative to mock (Col-0, 1 μM, replicate 5): 0.971 | Seedling fresh weight (Fig3C), relative to mock (Col-0, 1 μM, replicate 6): 0.6909 | Seedling fresh weight (Fig3C), relative to mock (Col-0, 1 μM, replicate 7): 0.9497 | Seedling fresh weight (Fig3C), relative to mock (Col-0, 1 μM, replicate 8): 0.9771 | Seedling fresh weight (Fig3C), relative to mock (Col-0, 1 μM, replicate 9): 0.9071 | Seedling fresh weight (Fig3C), relative to mock (Col-0, 1 μM, replicate 10): 0.9253 | Seedling fresh weight (Fig3C), relative to mock (Col-0, 1 μM, replicate 11): 0.8736 | Seedling fresh weight (Fig3C), relative to mock (Col-0, 1 μM, replicate 12): 0.9892 | Seedling fresh weight (Fig3C), relative to mock (Col-0, 10 μM, replicate 1): 0.6187 | Seedling fresh weight (Fig3C), relative to mock (Col-0, 10 μM, replicate 2): 0.9067 | Seedling fresh weight (Fig3C), relative to mock (Col-0, 10 μM, replicate 3): 0.8218 | Seedling fresh weight (Fig3C), relative to mock (Col-0, 10 μM, replicate 4): 0.6399 | Seedling fresh weight (Fig3C), relative to mock (Col-0, 10 μM, replicate 5): 0.5307 | Seedling fresh weight (Fig3C), relative to mock (Col-0, 10 μM, replicate 6): 0.5914 | Seedling fresh weight (Fig3C), relative to mock (Col-0, 10 μM, replicate 7): 0.649 | Seedling fresh weight (Fig3C), relative to mock (Col-0, 10 μM, replicate 8): 0.6005 | Seedling fresh weight (Fig3C), relative to mock (Col-0, 10 μM, replicate 9): 0.5337 | Seedling fresh weight (Fig3C), relative to mock (Col-0, 10 μM, replicate 10): 0.555 | Seedling fresh weight (Fig3C), relative to mock (Col-0, 10 μM, replicate 11): 0.7005 | Seedling fresh weight (Fig3C), relative to mock (Col-0, 10 μM, replicate 12): 0.6793 | Seedling fresh weight (Fig3C), relative to mock (mik2-1, 1 μM, replicate 1): 0.8038 | Seedling fresh weight (Fig3C), relative to mock (mik2-1, 1 μM, replicate 2): 0.7937 | Seedling fresh weight (Fig3C), relative to mock (mik2-1, 1 μM, replicate 3): 1.093 | Seedling fresh weight (Fig3C), relative to mock (mik2-1, 1 μM, replicate 4): 1.0157 | Seedling fresh weight (Fig3C), relative to mock (mik2-1, 1 μM, replicate 5): 1.096 | Seedling fresh weight (Fig3C), relative to mock (mik2-1, 1 μM, replicate 6): 0.8812 | Seedling fresh weight (Fig3C), relative to mock (mik2-1, 1 μM, replicate 7): 0.972 | Seedling fresh weight (Fig3C), relative to mock (mik2-1, 1 μM, replicate 8): 0.898 | Seedling fresh weight (Fig3C), relative to mock (mik2-1, 1 μM, replicate 9): 1.0157 | Seedling fresh weight (Fig3C), relative to mock (mik2-1, 1 μM, replicate 10): 1.002 | Seedling fresh weight (Fig3C), relative to mock (mik2-1, 1 μM, replicate 11): 1.083 | Seedling fresh weight (Fig3C), relative to mock (mik2-1, 1 μM, replicate 12): 1.063 | Seedling fresh weight (Fig3C), relative to mock (mik2-1, 10 μM, replicate 1): 1.068 | Seedling fresh weight (Fig3C), relative to mock (mik2-1, 10 μM, replicate 2): 1.011 | Seedling fresh weight (Fig3C), relative to mock (mik2-1, 10 μM, replicate 3): 0.7743 | Seedling fresh weight (Fig3C), relative to mock (mik2-1, 10 μM, replicate 4): 0.9434 | Seedling fresh weight (Fig3C), relative to mock (mik2-1, 10 μM, replicate 5): 0.8859 | Seedling fresh weight (Fig3C), relative to mock (mik2-1, 10 μM, replicate 6): 0.8014 | Seedling fresh weight (Fig3C), relative to mock (mik2-1, 10 μM, replicate 7): 1.0279 | Seedling fresh weight (Fig3C), relative to mock (mik2-1, 10 μM, replicate 8): 1.092 | Seedling fresh weight (Fig3C), relative to mock (mik2-1, 10 μM, replicate 9): 1.001 | Seedling fresh weight (Fig3C), relative to mock (mik2-1, 10 μM, replicate 10): 0.9772 | Seedling fresh weight (Fig3C), relative to mock (mik2-1, 10 μM, replicate 11): 1.058 | Seedling fresh weight (Fig3C), relative to mock (mik2-1, 10 μM, replicate 12): 1.106

YLPPSKSRKGKGP [SCOOP13]
Seedling fresh weight (Fig3C), relative to mock (Col-0, 1 μM, replicate 1): 0.6301 | Seedling fresh weight (Fig3C), relative to mock (Col-0, 1 μM, replicate 2): 0.5631 | Seedling fresh weight (Fig3C), relative to mock (Col-0, 1 μM, replicate 3): 0.764 | Seedling fresh weight (Fig3C), relative to mock (Col-0, 1 μM, replicate 4): 0.8644 | Seedling fresh weight (Fig3C), relative to mock (Col-0, 1 μM, replicate 5): 0.9892 | Seedling fresh weight (Fig3C), relative to mock (Col-0, 1 μM, replicate 6): 0.5388 | Seedling fresh weight (Fig3C), relative to mock (Col-0, 1 μM, replicate 7): 0.6544 | Seedling fresh weight (Fig3C), relative to mock (Col-0, 1 μM, replicate 8): 0.7792 | Seedling fresh weight (Fig3C), relative to mock (Col-0, 1 μM, replicate 9): 0.7397 | Seedling fresh weight (Fig3C), relative to mock (Col-0, 1 μM, replicate 10): 0.831 | Seedling fresh weight (Fig3C), relative to mock (Col-0, 1 μM, replicate 11): 0.6483 | Seedling fresh weight (Fig3C), relative to mock (Col-0, 1 μM, replicate 12): 0.7549 | Seedling fresh weight (Fig3C), relative to mock (Col-0, 10 μM, replicate 1): 0.02426 | Seedling fresh weight (Fig3C), relative to mock (Col-0, 10 μM, replicate 2): 0.03639 | Seedling fresh weight (Fig3C), relative to mock (Col-0, 10 μM, replicate 3): 0.03942 | Seedling fresh weight (Fig3C), relative to mock (Col-0, 10 μM, replicate 4): 0.03336 | Seedling fresh weight (Fig3C), relative to mock (Col-0, 10 μM, replicate 5): 0.04246 | Seedling fresh weight (Fig3C), relative to mock (Col-0, 10 μM, replicate 6): 0.03033 | Seedling fresh weight (Fig3C), relative to mock (Col-0, 10 μM, replicate 7): 0.03639 | Seedling fresh weight (Fig3C), relative to mock (Col-0, 10 μM, replicate 8): 0.06975 | Seedling fresh weight (Fig3C), relative to mock (Col-0, 10 μM, replicate 9): 0.07278 | Seedling fresh weight (Fig3C), relative to mock (Col-0, 10 μM, replicate 10): 0.04549 | Seedling fresh weight (Fig3C), relative to mock (Col-0, 10 μM, replicate 11): 0.03942 | Seedling fresh weight (Fig3C), relative to mock (Col-0, 10 μM, replicate 12): 0.04852 | Seedling fresh weight (Fig3C), relative to mock (mik2-1, 1 μM, replicate 1): 0.9552 | Seedling fresh weight (Fig3C), relative to mock (mik2-1, 1 μM, replicate 2): 1.033 | Seedling fresh weight (Fig3C), relative to mock (mik2-1, 1 μM, replicate 3): 0.6626 | Seedling fresh weight (Fig3C), relative to mock (mik2-1, 1 μM, replicate 4): 0.8038 | Seedling fresh weight (Fig3C), relative to mock (mik2-1, 1 μM, replicate 5): 1.026 | Seedling fresh weight (Fig3C), relative to mock (mik2-1, 1 μM, replicate 6): 0.9081 | Seedling fresh weight (Fig3C), relative to mock (mik2-1, 1 μM, replicate 7): 1.002 | Seedling fresh weight (Fig3C), relative to mock (mik2-1, 1 μM, replicate 8): 0.9854 | Seedling fresh weight (Fig3C), relative to mock (mik2-1, 1 μM, replicate 9): 1.022 | Seedling fresh weight (Fig3C), relative to mock (mik2-1, 1 μM, replicate 10): 1.049 | Seedling fresh weight (Fig3C), relative to mock (mik2-1, 1 μM, replicate 11): 1.127 | Seedling fresh weight (Fig3C), relative to mock (mik2-1, 1 μM, replicate 12): 1.002 | Seedling fresh weight (Fig3C), relative to mock (mik2-1, 10 μM, replicate 1): 1.163 | Seedling fresh weight (Fig3C), relative to mock (mik2-1, 10 μM, replicate 2): 0.8385 | Seedling fresh weight (Fig3C), relative to mock (mik2-1, 10 μM, replicate 3): 1.18 | Seedling fresh weight (Fig3C), relative to mock (mik2-1, 10 μM, replicate 4): 1.075 | Seedling fresh weight (Fig3C), relative to mock (mik2-1, 10 μM, replicate 5): 0.8419 | Seedling fresh weight (Fig3C), relative to mock (mik2-1, 10 μM, replicate 6): 0.8825 | Seedling fresh weight (Fig3C), relative to mock (mik2-1, 10 μM, replicate 7): 1.082 | Seedling fresh weight (Fig3C), relative to mock (mik2-1, 10 μM, replicate 8): 0.9738 | Seedling fresh weight (Fig3C), relative to mock (mik2-1, 10 μM, replicate 9): 0.9332 | Seedling fresh weight (Fig3C), relative to mock (mik2-1, 10 μM, replicate 10): 0.9569 | Seedling fresh weight (Fig3C), relative to mock (mik2-1, 10 μM, replicate 11): 0.9941 | Seedling fresh weight (Fig3C), relative to mock (mik2-1, 10 μM, replicate 12): 0.896
